Read-outs that look alike come from different tables or passages of the source.
Columns and labels:
[1] = test system: Influenza strain A549 A/WSN/33 (H1N1); test: Influenza Antiviral Assay; type: cell-based, Influenza A virus; details: neuraminidase fluorescence readout, read-out: % Inhibition
EN PA = EN PA (Influenza A virus, UniProt P15659); test: EN PA FRET Inhibition Assay; type: biochemical; details: read-out: Potency

Row | Structure (SMILES) | EC50 ([1]; Influenza A virus, A549, 20 h) | IC50 (EN PA) | EC50 [1]
1 | Cc1cn(C2(Cn3cc(O)c(=O)c(C(=O)NCCO)n3)CCCC2)c2ncccc12 [Compound 761] | < 20 µM | < 0.1 µM | –
2 | Cc1cn(C2(Cn3cc(O)c(=O)c(C(=O)C(C)C)n3)CCCC2)c2ncccc12 [Compound 833] | < 20 µM | < 0.1 µM | –
3 | O=C(NCc1ccc2c(c1)OCO2)c1nn(CC2(c3cccc(C(F)(F)F)c3)CCCC2)cc(O)c1=O [Compound 625] | < 20 µM | 0.1 to 1 µM | –
4 | O=C(Nc1ccccc1)c1nn(CC2(c3ccccc3)CCCC2)cc(O)c1=O [Compound 639] | 20 to 100 µM | 0.1 to 1 µM | –
5 | CNC(=O)c1nn(-c2ccccc2-c2cccc(OC)c2)cc(O)c1=O [Compound 611] | > 100 µM | ≥ 1 µM | –
6 | CCNC(=O)c1nn(CC2(c3ccc4ccccc4c3)CCCC2)cc(O)c1=O [Compound 828] | < 20 µM | < 0.1 µM | –
7 | Cc1cn(C2(Cn3cc(O)c(=O)c(C(=O)N4CCC4)n3)CCCC2)c2ncccc12 [Compound 773] | < 20 µM | < 0.1 µM | –
8 | CNC(=O)c1nn(CC2(n3cc(C(C)C)c4cccnc43)CCCC2)cc(O)c1=O [Compound 694] | < 20 µM | 0.1 to 1 µM | –
9 | CCC(NC(=O)c1nn(CC2(c3cccc(C(F)(F)F)c3)CCCC2)cc(O)c1=O)C(F)(F)F (stereo not shown) [Compound 500, 5-hydroxy-4-oxo-N-(1,1,1-trifluorobutan-2-yl)-1-((1-(3-(trifluoromethyl)phenyl)cyclopentyl)methyl)-1,4-dihydropyridazine-3-carboxamide] | < 20 µM | 0.1 to 1 µM | –
10 | NC(=O)c1nn(CC2(c3cccc(C(F)(F)F)c3)CC2)cc(O)c1=O [Compound 626] | 20 to 100 µM | 0.1 to 1 µM | –
11 | O=C(NCc1ccccc1)c1nn(CC2(c3cncnc3)CCCC2)cc(O)c1=O [Compound 832] | > 100 µM | < 0.1 µM | –
12 | CCn1cc(CNC(=O)c2nn(CC3(c4cccc(C(F)(F)F)c4)CCCC3)cc(O)c2=O)cn1 [Compound 650] | < 20 µM | < 0.1 µM | –
13 | Cc1ccc(CNC(=O)c2nn(CC3(c4cccc(C(F)(F)F)c4)CCCC3)cc(O)c2=O)cc1 [Compound 524] | < 20 µM | 0.1 to 1 µM | –
14 | O=C(NCc1ccc2[nH]ncc2c1)c1nn(CC2(c3cccc(C(F)(F)F)c3)CCCC2)cc(O)c1=O [Compound 669] | > 100 µM | < 0.1 µM | –
15 | CNC(=O)c1nn(CC2(c3cccc(C(C)C)c3)CCCC2)cc(O)c1=O [Compound 665] | < 20 µM | < 0.1 µM | –
16 | CNC(=O)c1nn(CC2(c3ccc4ncccc4c3)CCCC2)cc(O)c1=O [Compound 845] | < 20 µM | < 0.1 µM | –
17 | Cc1cn(C2(Cn3cc(O)c(=O)c(C(=O)NCC4(CO)CCCC4)n3)CCCC2)c2ncccc12 [Compound 822] | < 20 µM | < 0.1 µM | –
18 | C#Cc1cn(C2(Cn3cc(O)c(=O)c(C(=O)NC)n3)CCCC2)c2ncc(C)cc12 [Compound 875] | < 20 µM | < 0.1 µM | –
19 | CNC(=O)c1nn(CC2(c3cc(F)cc(C(F)(F)F)c3)CCCC2)cc(O)c1=O [Compound 800] | < 20 µM | < 0.1 µM | –
20 | CNC(=O)c1nn(CC2(c3ccc4cnccc4c3)CCCC2)cc(O)c1=O [Compound 844] | < 20 µM | < 0.1 µM | –
21 | Cc1cn(C2(Cn3cc(O)c(=O)c(C(=O)NC(C)(C)CN)n3)CCCC2)c2ccccc12 [Compound 868] | < 20 µM | < 0.1 µM | –
22 | CNC(=O)c1nn(CC2(n3cc(-c4ccccc4)c4cccnc43)CCCC2)cc(O)c1=O [Compound 742] | – | < 0.1 µM | < 20 µM

Row | Structure (SMILES) | EC50 ([1]; Influenza A virus, A549, 20 h) | IC50 (EN PA) | EC50 [1]
23 | CCOC(=O)c1nn(CCc2ccccc2C(F)(F)F)cc(O)c1=O [Compound 408] | 20 to 100 µM | ≥ 1 µM | –
24 | O=C(NCc1cnn(-c2ccc(F)cc2)c1)c1nn(CC2(c3cccc(C(F)(F)F)c3)CCCC2)cc(O)c1=O [Compound 649] | < 20 µM | < 0.1 µM | –
25 | CNC(=O)c1nn(CC2(n3ccc4ccc(Cl)cc43)CCCC2)cc(O)c1=O [Compound 860] | < 20 µM | < 0.1 µM | –
26 | CNC(=O)c1nn(CC2(c3cccc(OC)c3)CCCC2)cc(O)c1=O [Compound 703] | < 20 µM | < 0.1 µM | –
27 | C[C@H](NC(=O)c1nn(CC2(n3cc(Cl)c4cccnc43)CCCC2)cc(O)c1=O)C(F)(F)F [Compound 772] | < 20 µM | 0.1 to 1 µM | –
28 | CNC(=O)c1nn(CC2(n3c4ccccc4c4ccccc43)CCCC2)cc(O)c1=O [Compound 896] | < 20 µM | < 0.1 µM | –
29 | O=C(c1nn(CC2(c3cccc(C(F)(F)F)c3)CCCC2)cc(O)c1=O)N1CCC(F)(F)C1 [Compound 502] | < 20 µM | ≥ 1 µM | –
30 | CCCNC(=O)c1nn(CC2(n3cc(C)c4cccnc43)CCCC2)cc(O)c1=O [Compound 756] | < 20 µM | < 0.1 µM | –
31 | CC1CCCN(c2ccccc2-n2cc(O)c(=O)c(C(=O)O)n2)C1 (stereo not shown) [Compound 210] | > 100 µM | 0.1 to 1 µM | –
32 | CNC(=O)c1nn(CC2(c3cccc(-c4ccccc4)c3)CCCC2)cc(O)c1=O [Compound 674] | < 20 µM | < 0.1 µM | –
33 | O=C(O)c1nn(Cc2ccccc2)cc(O)c1=O [Compound 409] | > 100 µM | 0.1 to 1 µM | –
34 | O=C(O)c1nn(CCc2ccccc2)cc(O)c1=O [Compound 401] | > 100 µM | 0.1 to 1 µM | –
35 | Cc1cn(C2(Cn3cc(O)c(=O)c(C(=O)N4CCOCC4)n3)CCCC2)c2ncccc12 [Compound 877] | > 100 µM | 0.1 to 1 µM | –
36 | CC(C)(C)OC(=O)n1cc(CCn2cc(O)c(=O)c(C(=O)O)n2)c2ccccc21 [Compound 404] | > 100 µM | < 0.1 µM | –
37 | COc1cccc(CNC(=O)c2nn(CC3(c4cccc(C(F)(F)F)c4)CCCC3)cc(O)c2=O)c1 [Compound 624] | < 20 µM | 0.1 to 1 µM | –
38 | CNC(=O)c1nn(CC2(n3cc(C)c4cccnc43)CCCC2)cc(OC(=O)C(C)C)c1=O [Compound 678] | < 20 µM | < 0.1 µM | –
39 | O=C(NCc1ccc(F)c(Cl)c1)c1nn(CC2(c3ccc(Cl)c(Cl)c3)CCCC2)cc(O)c1=O [Compound 784] | < 20 µM | 0.1 to 1 µM | –
40 | CCC(=O)c1nn(CC2(n3cc(C)c4cccnc43)CCCC2)cc(O)c1=O [Compound 827] | < 20 µM | < 0.1 µM | –
41 | CNC(=O)c1nn(CC2(n3ccc4cccnc43)CCCC2)cc(O)c1=O [Compound 609] | < 20 µM | < 0.1 µM | –
42 | Cc1ccc(C2(Cn3cc(O)c(=O)c(C(=O)O)n3)CC2)cc1 [Compound 655] | > 100 µM | < 0.1 µM | –
43 | CC1(C)CCC(Cn2cc(O)c(=O)c(C(=O)NCc3ccccc3)n2)(c2ccccc2)C1 (stereo not shown) [Compound 796] | > 100 µM | 0.1 to 1 µM | –
44 | O=C(NCC(F)(F)F)c1nn(CC2(c3cccc(C(F)(F)F)c3)CCCC2)cc(O)c1=O [Compound 505] | < 20 µM | 0.1 to 1 µM | –

Row | Structure (SMILES) | EC50 ([1]; Influenza A virus, A549, 20 h) | IC50 (EN PA) | EC50 [1]
45 | CNC(=O)c1nn(CC2(c3ccc(Cl)c(Cl)c3)CCCC2)cc(O)c1=O [Compound 752] | < 20 µM | < 0.1 µM | –
46 | CC(C)(CO)NC(=O)c1nn(CC2(n3cc(Cl)c4cccnc43)CCCC2)cc(O)c1=O [Compound 866] | < 20 µM | < 0.1 µM | –
47 | CNC(=O)c1nn(CC2(c3cccc(C(F)(F)F)c3)CCCC2)cc(O)c1=O [Compound 511] | < 20 µM | 0.1 to 1 µM | –
48 | CNC(=O)c1nn(CC2(c3cccc(Br)c3)CCCC2)cc(O)c1=O [Compound 666] | < 20 µM | < 0.1 µM | –
49 | CNC(=O)c1nn(CC2(n3c(C)cc4cccnc43)CCCC2)cc(O)c1=O [Compound 790] | < 20 µM | < 0.1 µM | –
50 | CNC(=O)c1nn(CC2(c3ccc4ccccc4c3)CCCC2)cc(O)c1=O [Compound 777] | < 20 µM | < 0.1 µM | –
51 | CNC(=O)c1nn(CC2(n3ccc4c(C)ccnc43)CCCC2)cc(O)c1=O [Compound 864] | < 20 µM | < 0.1 µM | –
52 | O=C(NCC1CC1)c1nn(CC2(c3ccccc3)CCCC2)cc(O)c1=O [Compound 677] | < 20 µM | < 0.1 µM | –
53 | O=C(NCc1ccc(F)c(Cl)c1)c1nn(CC2(c3ccccc3)CCCC2)cc(O)c1=O [Compound 709] | < 20 µM | < 0.1 µM | –
54 | Cc1c(O)c(=O)c(C(=O)O)nn1CCc1ccccc1 [Compound 782] | > 100 µM | < 0.1 µM | –
55 | CNC(=O)c1nn(-c2ccccc2S(=O)(=O)c2ccccc2)cc(O)c1=O [Compound 603] | > 100 µM | ≥ 1 µM | –
56 | CNC(=O)c1nn(CC2(N3c4ccccc4C=Cc4ccccc43)CCCC2)cc(O)c1=O [Compound 884] | < 20 µM | < 0.1 µM | –
57 | CNC(=O)c1nn(-c2ccccc2S(=O)(=O)c2cccc(Cl)c2)cc(O)c1=O [Compound 644] | > 100 µM | 0.1 to 1 µM | –
58 | O=C(O)c1nn(-c2ccccc2-c2ccccc2OC2CCCC2)cc(O)c1=O [Compound 319] | < 20 µM | 0.1 to 1 µM | –
59 | CNC(=O)c1nn(CC(C)(C)n2cc(C(F)(F)F)c3cccnc32)cc(O)c1=O [Compound 704] | < 20 µM | < 0.1 µM | –
60 | CNC(=O)c1nn(Cc2ccccc2-c2ccccc2)cc(O)c1=O [Compound 654] | > 100 µM | 0.1 to 1 µM | –
61 | CNC(=O)c1nn(CC2(c3ccccc3)CC(C)(C)C2)cc(O)c1=O [Compound 778] | 20 to 100 µM | < 0.1 µM | –
62 | O=C(O)c1nn(CCc2ccccc2C(F)(F)F)cc(O)c1=O [Compound 400, 1-(2-(trifluoromethyl)phenethyl)-1,4-dihydro-5-hydroxv-4-oxopyridazine-3-carboxylic acid] | > 100 µM | < 0.1 µM | –
63 | CNC(=O)c1nn(CC2(c3ccc4ccncc4c3)CCCC2)cc(O)c1=O [Compound 848] | > 100 µM | < 0.1 µM | –
64 | CC1(C)CCN(c2ccccc2-n2cc(O)c(=O)c(C(=O)O)n2)CC1 [Compound 206] | 20 to 100 µM | 0.1 to 1 µM | –
65 | CNC(=O)c1nn(CCN2c3ccccc3C=Cc3ccccc32)cc(O)c1=O [Compound 838] | < 20 µM | < 0.1 µM | –

Source: US10364226B2, “Pyridazinone compounds and uses thereof” (priority 2013, dated 2019)
